Test results as given in patent US20260294915A1, “COMBINATION THERAPY COMPRISING A MAT2A INHIBITOR AND A TOPOISOMERASE INHIBITOR, A SPLICING INHIBITOR SULFONAMIDE, OR A KIF18 INHIBITOR” (IDEAYA BIOSCIENCES, INC., priority 2023, published 2026).
Marks after values point to notes of the source that are not given here.

How the values were obtained:
Test in all cases: 10-day proliferation (CTG), SPLAM titration + 1000 nM Compound A, Bliss (Example 5; Tables 12-19)
Format in all cases: cell-based
Design in all cases: key: GDI scale -100 to 100; 0 = cell number at T0; <0 cytotoxic
Settings in all cases: alone or + 1 uM Cmpd A
NCI-H838 = tested on: NCI-H838
Experimental: (§1) Synergy was measured across the Indisulam titration with 1000 nM Compound A by Bliss Independence analysis. Bliss scores >10 are indicated by “*” and are considered synergistic. […] Synergy as reported using Bliss may be underrepresented within cytotoxic dose ranges. Growth death index values are shown for the combination titration and each single agent Compound A (Cmpd A) and Indisulam on a scale of −100 to 100 with the midpoint (0) being the number of cells at the beginning of the combination (T0). Scores less than 0 are indicated with “**” and are representative of a cytotoxic response. Bliss and GDI values are shown for five MTAP-deficient cell lines: NCI-1H838 (12A), SW900 (12B), RT112/84 (12C), UMUC5 (121D), and UMUC11 (12E).
(§2) A 10-day proliferation assay was performed in a panel of 5 MTAP-deficient and 2 wild type non-small cell lung and bladder cancer cell lines. Optimal cell seeding for all cell lines was determined by assessing the growth over a range of seeding densities in a 384-well format to identify conditions that permitted proliferation for 10 days. Cells were then plated at the optimal seeding density and treated with 20-point, two-fold dilution series of each of four structurally different SPLAMs in combination with a 1000 nM fixed concentration of Compound A. Single agent titrations for Compound A and each SPLAM were included for comparison. Concentrations tested for each SPLAM alone or in combination ranged from 0.04 nM to 20,000 nM. A plate of cells was harvested at the time of compound addition to quantify the number of cells at the start of the combination (T0). For cell quantification, the harvested cells were lysed with Promega CellTiter-Glo (CTG) reagent according to the manufacturer's protocol and the chemiluminescent signal was detected as described in Example 1 above. Cells were incubated with the drug combinations at 37° C. with 5% CO2 for 10 days. Cells were then lysed with CTG and the chemiluminescent signal was measured.
(§3) CTG values obtained after the 10-day treatment were background subtracted and expressed as a percent of the T0 value set at 100%. Data were plotted against compound concentration and fit with a four-parameter equation to generate single agent dose response curves. Percent inhibition was determined for each combination and single agent concentration compared to a DMSO control. In addition, the overall net growth or death of the cells was calculated and reported as a growth death index (GDI) value on a scale of −100 to 100 with the midpoint (0) being the number of cells at the beginning of the combination (T0).
(§4) Predicted inhibition was calculated using (Ea+Eb)−(Ea*Eb) where E equals the effect (inhibition) of each single agent (a and b). A difference between the observed inhibition percentage and the predicted inhibition percentage greater than 10% was considered synergistic. A Bliss score was only reported for combinations eliciting >20% growth inhibition (GDI value <80). Since Bliss is calculated based on growth inhibition, scores within cytotoxic dose ranges may not accurately reflect synergistic cytoxicity.
(§5) Synergy was measured across the E7820 titration with 1000 nM Compound A by Bliss Independence analysis. Bliss scores >10 are indicated by “*” and are considered synergistic. […] Synergy as reported using Bliss may be underrepresented within cytotoxic dose ranges. Growth death index values are shown for the combination titration and each single agent Compound A (Cmpd A) and Indisulam on a scale of −100 to 100 with the midpoint (0) being the number of cells at the beginning of the combination (T0). Scores less than 0 are indicated by “**” and are representative of a cytotoxic response. Bliss and GDI values are shown for five MTAP-deficient cell lines: NCI-1H838 (14A), SW900 (14B), RT112/84 (14C), UMUC5 (141)), and UMUC11 (14E).
(§6) Synergy was measured across the Chloroquinoxaline Sulfonamide titration with 1000 nM Compound A by Bliss Independence analysis.

RT112/84 = tested on: RT112/84
Experimental: as §1, §2, §3, §4, §5, §6

UMUC11 = tested on: UMUC11
Experimental: as §1, §2, §3, §4, §5, §6

UMUC5 = tested on: UMUC5
Experimental: as §1, §2, §3, §4, §5, §6

Measured: GDI

Cc1ccc(NS(=O)(=O)c2cccc(C#N)c2)c2[nH]cc(C#N)c12 [Compound E7820, 3-cyano-N-(3-cyano-4-methyl-1H-indol-7-yl)benzenesulfonamide]
−35**: RT112/84; SPLAM 1250 nM
100: NCI-H838; SPLAM 0.04 nM | NCI-H838; SPLAM 0.1 nM | NCI-H838; SPLAM 0.2 nM | NCI-H838; SPLAM 0.3 nM | NCI-H838; SPLAM 0.6 nM | NCI-H838; SPLAM 1.2 nM | NCI-H838; SPLAM 2.4 nM | NCI-H838; SPLAM 4.9 nM | NCI-H838; SPLAM 9.8 nM | NCI-H838; SPLAM 19.5 nM | NCI-H838; SPLAM 39.1 nM | NCI-H838; SPLAM 78.1 nM | NCI-H838; SPLAM 156.3 nM | RT112/84; SPLAM 0.2 nM | RT112/84; SPLAM 0.3 nM | RT112/84; SPLAM 0.6 nM | RT112/84; SPLAM 1.2 nM | RT112/84; SPLAM 2.4 nM | RT112/84; SPLAM 9.8 nM | RT112/84; SPLAM 19.5 nM | RT112/84; SPLAM 39.1 nM | RT112/84; SPLAM 78.1 nM | UMUC11; SPLAM 0.04 nM | UMUC11; SPLAM 0.1 nM | UMUC11; SPLAM 0.2 nM | UMUC11; SPLAM 0.3 nM | UMUC11; SPLAM 0.6 nM | UMUC11; SPLAM 1.2 nM | UMUC11; SPLAM 2.4 nM | UMUC11; SPLAM 4.9 nM | UMUC11; SPLAM 9.8 nM | UMUC11; SPLAM 19.5 nM | UMUC11; SPLAM 39.1 nM | UMUC11; SPLAM 78.1 nM | UMUC11; SPLAM 156.3 nM | UMUC5; SPLAM 0.04 nM | UMUC5; SPLAM 0.1 nM | UMUC5; SPLAM 0.2 nM | UMUC5; SPLAM 0.3 nM | UMUC5; SPLAM 0.6 nM | UMUC5; SPLAM 1.2 nM | UMUC5; SPLAM 2.4 nM | UMUC5; SPLAM 4.9 nM | UMUC5; SPLAM 9.8 nM | UMUC5; SPLAM 19.5 nM | UMUC5; SPLAM 39.1 nM | UMUC5; SPLAM 78.1 nM
73: UMUC5; SPLAM 312.5 nM
15: UMUC5; SPLAM 1250 nM | UMUC5; SPLAM 2500 nM
−100**: RT112/84; SPLAM 5000 nM | RT112/84; SPLAM 10000 nM | RT112/84; SPLAM 20000 nM
−13**: NCI-H838; SPLAM 5000 nM
89: RT112/84; SPLAM 0.04 nM
11: UMUC11; SPLAM 1250 nM
−46**: NCI-H838; SPLAM 20000 nM
4: NCI-H838; SPLAM 1250 nM | UMUC11; SPLAM 5000 nM
5: UMUC11; SPLAM 2500 nM
1: NCI-H838; SPLAM 2500 nM | UMUC11; SPLAM 20000 nM
6: RT112/84; SPLAM 625 nM | UMUC5; SPLAM 10000 nM
31: RT112/84; SPLAM 312.5 nM | UMUC11; SPLAM 625 nM | UMUC5; SPLAM 625 nM
99: UMUC5; SPLAM 156.3 nM
90: RT112/84; SPLAM 156.3 nM
7: UMUC5; SPLAM 5000 nM
94: RT112/84; SPLAM 0.1 nM | RT112/84; SPLAM 4.9 nM
−84**: RT112/84; SPLAM 2500 nM
−64**: NCI-H838; SPLAM 10000 nM
76: NCI-H838; SPLAM 312.5 nM | UMUC11; SPLAM 312.5 nM
3: UMUC11; SPLAM 10000 nM | UMUC5; SPLAM 20000 nM
13: NCI-H838; SPLAM 625 nM
